For experiment [1], the system named is Z-138 cell line. The experiment in a line: Z-138 Proliferation Assay (Cell Titer Glo, 5 days). In kind it is cell-based. The note with it: Homo sapiens, 120 h, Z-138 cells, 5 days, read-out: Proliferation EC50. The procedure, abridged:
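Z-138 cells exposed 5 days at 37 °C, 5% CO2 to nine-point 3-fold dilutions (final top 20 μM, 0.2% DMSO), in triplicate. Viability read as ATP by CellTiter-Glo luminescence; IC50 from 4-parameter fit of normalized dose-response curves.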
On the technique in general: ATP-based viability assays read luminescence as a measure of living cells.

The test system of experiment [2] is symmetric di-methyl arginine in Z-138 cells. The experiment in a line: Z-138 Methylation Assay (In Cell Western for symmetric di-methyl arginine and DNA content). In kind it is cell-based. The note with it: Homo sapiens, read-out: ICW EC50. Summed up:
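Z-138 cells (50,000 cells/mL) treated with compound 96 h at 37 °C, then fixed and stained for symmetric di-methyl arginine (800 nm) with DRAQ5 DNA counterstain (700 nm) on Licor Odyssey.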

Experiment [3] deals with PRMT5/MEP50 (Homo sapiens (Human), UniProt O14744). The experiment in a line: PRMT5 Biochemical Assay (PRMT5/MEP50 enzyme assay on peptide substrate, 3H-SAM Flashplate). Summed up:
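Radiometric methylation of a biotin-tagged H4(1-15) peptide by human PRMT5/MEP50 from baculovirus/Sf9, with ³H-SAM incorporation read on streptavidin Flashplates. Buffer: Bicine pH 7.6, TCEP, BSG, Tween20; compound preincubated 30 min at 25 °C; stopped with 600 µM final unlabeled SAM. DMSO and SAH controls; IC50 from fitted % inhibition.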

The term IC50 denotes the concentration that gives 50% inhibition.

Each structure is given as a SMILES string. Where two headings read alike, the source gives them in different places.

Chain of PRMT5/MEP50 (O14744 other isoform, or with tags, fused parts or gaps): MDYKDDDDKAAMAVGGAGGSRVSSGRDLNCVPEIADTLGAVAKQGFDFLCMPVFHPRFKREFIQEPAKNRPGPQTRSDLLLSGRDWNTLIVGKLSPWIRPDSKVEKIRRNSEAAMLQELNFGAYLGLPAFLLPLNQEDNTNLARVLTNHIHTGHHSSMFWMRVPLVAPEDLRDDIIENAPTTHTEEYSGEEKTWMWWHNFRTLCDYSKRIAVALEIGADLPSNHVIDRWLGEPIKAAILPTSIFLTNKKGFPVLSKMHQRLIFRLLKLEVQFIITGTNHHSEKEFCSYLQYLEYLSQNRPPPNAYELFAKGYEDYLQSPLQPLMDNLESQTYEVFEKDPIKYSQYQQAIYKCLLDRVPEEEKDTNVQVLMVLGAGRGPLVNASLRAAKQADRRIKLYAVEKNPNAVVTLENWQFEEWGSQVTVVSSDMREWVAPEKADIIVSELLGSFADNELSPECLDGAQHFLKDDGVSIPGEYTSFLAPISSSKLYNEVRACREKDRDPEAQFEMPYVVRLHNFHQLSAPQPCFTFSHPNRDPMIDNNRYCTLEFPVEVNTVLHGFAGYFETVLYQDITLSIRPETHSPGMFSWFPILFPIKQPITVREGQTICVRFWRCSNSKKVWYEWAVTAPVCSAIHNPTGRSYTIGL
Chain of PRMT5/MEP50 (Q9BQA1 other isoform, or with tags, fused parts or gaps partner): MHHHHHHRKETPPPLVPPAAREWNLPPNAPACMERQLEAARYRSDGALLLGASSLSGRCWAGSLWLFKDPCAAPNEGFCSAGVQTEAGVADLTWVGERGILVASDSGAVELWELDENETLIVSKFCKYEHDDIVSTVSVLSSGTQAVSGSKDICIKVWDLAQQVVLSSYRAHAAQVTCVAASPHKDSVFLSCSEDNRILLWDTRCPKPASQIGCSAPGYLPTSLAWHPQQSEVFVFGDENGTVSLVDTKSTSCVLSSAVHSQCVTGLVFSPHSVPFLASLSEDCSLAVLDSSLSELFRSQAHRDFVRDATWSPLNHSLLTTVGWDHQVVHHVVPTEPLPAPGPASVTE

Turning to `CC(=O)N(C)[C@H]1CC[C@H](Nc2cc(C(=O)NC[C@H](O)CN3CCc4ccccc4C3)ncn2)CC1` [Compound 671], the EC50 in experiment [1] (Cell Titer Glo) and in experiment [2] (In Cell Western methylation) was < 100 nM each time. Besides, in experiment [3] (PRMT5 biochemical assay), the IC50 was < 100 nM.
Regarding `NS(=O)(=O)c1cccc(C(=O)NCC(O)CN2CCc3ccccc3C2)c1` (stereo not drawn) [Compound 32], the figures for the EC50 in experiment [1] and in experiment [2] were > 20000 nM and 101 to 1000 nM, respectively. In addition, the IC50 in experiment [3] is 101 to 1000 nM.
As to `Cc1cc(Nc2cc(C(=O)NC[C@H](O)CN3CCc4ccccc4C3)ncn2)n[nH]1` [Compound 432], the results for the EC50 in experiment [1] (Cell Titer Glo) and in experiment [2] (In Cell Western methylation) were 1000 to 10000 nM and < 100 nM, respectively. Besides, the IC50 in experiment [3] (PRMT5 biochemical assay) was < 100 nM.
For `CC(=O)N(C)[C@H]1C[C@H](Nc2cc(C(=O)NC[C@H](O)CN3CCc4ccccc4C3)ncn2)C1` [Compound 564], the EC50 in experiment [1] (Cell Titer Glo) was 101 to 1000 nM; in experiment [2] (In Cell Western methylation), < 100 nM. The IC50 in experiment [3] (PRMT5 biochemical assay) is < 100 nM.
Take `CN(C[C@H](O)CN1CCc2ccccc2C1)C(=O)c1cc(N(C)C2CCOCC2)ncn1` [Compound 313]: the EC50 is 1000 to 10000 nM in experiment [1] and < 100 nM in experiment [2]. Moreover, the IC50 in experiment [3] was < 100 nM.
With `O=C(NCC(O)CN1CCc2ccccc2C1)c1cccnc1` (stereo not drawn) [Compound 18], the EC50 lay in the range of 10000 to 50000 nM in experiment [1] and 101 to 1000 nM in experiment [2]. Also, the IC50 in experiment [3] was 101 to 1000 nM.
`O=C(NC[C@H](O)CN1CCc2ccccc2C1)c1cnnc(OC2CCN(CC(F)(F)F)CC2)c1` [Compound 626]: the EC50 in experiment [1] (Cell Titer Glo) was in the range of 1000 to 10000 nM; in experiment [2] (In Cell Western methylation) it was 101 to 1000 nM. Also, in experiment [3] (PRMT5 biochemical assay), the IC50 is 101 to 1000 nM.
On to `O=C(NC[C@H](O)CN1CCc2ccccc2C1)c1ccc(OCCN2CCOCC2)cc1` [Compound 387], for which the figures for the EC50 in experiment [1] and in experiment [2] were 101 to 1000 nM and < 100 nM, respectively. In experiment [3], the IC50 is < 100 nM.
Consider `CC(=O)N1CCC(Nc2cc(C(=O)NCCCN3CCc4ccccc4C3)ccn2)CC1` [Compound 654], for which the EC50 in experiment [1] (Cell Titer Glo) was 1000 to 10000 nM; in experiment [2] (In Cell Western methylation), < 100 nM. The IC50 in experiment [3] (PRMT5 biochemical assay) was < 100 nM.
On to `NC(=O)[C@H]1CC[C@@H](Nc2cc(C(=O)NC[C@H](O)CN3CCc4ccccc4C3)ncn2)CC1` [Compound 596], for which the EC50 was 1000 to 10000 nM in experiment [1] (Cell Titer Glo) and < 100 nM in experiment [2] (In Cell Western methylation). Further, in experiment [3] (PRMT5 biochemical assay), the IC50 was < 100 nM.
As to `Cc1cnc(NC2CN(S(C)(=O)=O)C2)cc1C(=O)NC[C@H](O)CN1CCc2ccccc2C1` [Compound 379], the EC50 in experiment [1] was 1000 to 10000 nM; in experiment [2], < 100 nM. The IC50 in experiment [3] is < 100 nM.
Take `CCCN(C)c1nc(NC2COC2)cc(C(=O)NC[C@H](O)CN2CCc3ccccc3C2)n1` [Compound 459]: the EC50 in experiment [1] (Cell Titer Glo) and in experiment [2] (In Cell Western methylation) was < 100 nM throughout. Further, the IC50 in experiment [3] (PRMT5 biochemical assay) was < 100 nM.
On to `O=C(NC[C@H](O)CN1CCc2ccccc2C1)c1cc(NC2CCC2)nc(N2CCCCC2)c1` [Compound 375], for which the values for the EC50 in experiment [1] and in experiment [2] were 101 to 1000 nM and < 100 nM, respectively. Further, in experiment [3], the IC50 was < 100 nM.
Regarding `O=C(NC[C@H](O)CN1CCc2ccccc2C1)c1ccnc(NC2CN(C(=O)C3CC3)C2)c1` [Compound 490], the EC50 in experiment [1] (Cell Titer Glo) and in experiment [2] (In Cell Western methylation) was < 100 nM each time. Further, the IC50 in experiment [3] (PRMT5 biochemical assay) is < 100 nM.
As to `NC(=O)c1ccc(C(=O)NCC(O)CN2CCc3ccccc3C2)cc1` (stereo not drawn) [Compound 22], the figures for the EC50 in experiment [1] and in experiment [2] were > 20000 nM and 101 to 1000 nM, respectively. The IC50 in experiment [3] fell in the range of 101 to 1000 nM.
On to `COCCN1CCN(c2nc(NC3COC3)cc(C(=O)NC[C@H](O)CN3CCc4ccccc4C3)n2)CC1` [Compound 496], for which the EC50 in experiment [1] (Cell Titer Glo) and in experiment [2] (In Cell Western methylation) was < 100 nM throughout. Besides, the IC50 in experiment [3] (PRMT5 biochemical assay) is < 100 nM.
For `CC(=O)N1CCC(Nc2cc(C(=O)NC[C@H](O)CN3CCc4c(C)cccc4C3)ccn2)CC1` [Compound 670], the figures for the EC50 in experiment [1] (Cell Titer Glo) and in experiment [2] (In Cell Western methylation) were 101 to 1000 nM and < 100 nM, respectively. Also, in experiment [3] (PRMT5 biochemical assay), the IC50 is < 100 nM.
In the case of `CN(C)C(=O)CNCCOc1cccc(C(=O)NCC(O)CN2CCc3ccccc3C2)c1` (stereo not drawn) [Compound 340], the EC50 is > 20000 nM in experiment [1] and 101 to 1000 nM in experiment [2]. Further, in experiment [3], the IC50 lay in the range of 101 to 1000 nM.

Values taken from US10307413B2, “Tetrahydro- and dihydro-isoquinoline PRMT5 inhibitors and uses thereof” (Epizyme, Inc., priority 2013, dated 2019).
